{"source": "patent US4092420A", "about": "“Novel soft N-chloroamino alcohol derivatives exhibiting antibacterial activity” (INTERx Research Corporation, priority 1977, dated 1978)", "key": {"P. aeruginosa": {"system": "P. aeruginosa", "experiment": "Minimal inhibitory concentration (MIC), Example V", "assay_type": "cell-based", "details": "Pseudomonas aeruginosa", "description": "(§1) THE ANTIBACTERIAL SCREEN - EXAMPLE V\n(§2) THE ANTIBACTERIAL SCREEN - EXAMPLES W - Z (Autotiter IV)\n(§3) (a) Compounds. All compounds to be screened are weighed (approx. 10 mg) on the day preceding the test date. Each compound is solubilized on the day of assay in appropriate solvent and diluted automatically in the Autotiter IV with distilled water (buffer can be employed here also).\n(§4) Bacteria: Staphylococcus aureas Smith (or 209), Escherichia coli AB 1932-1, 1100/B22 and Vogel, Streptococcus pyogenes C203 Salmonella typhimurium 14028, Bacillus subtilis 6051-1, Klebsiella pneumoniae 10031, Pseudomonas aeruginosa 9027, Bordetella bronchiseptica 4617 and Staphylococcus epidermidis 12228.\n(§5) (c) Inocula. Prior to utilization in the Autotiter IV, all bacteria are cultured for 18-20 hr. (37° C) in tryptose phosphate broth (TP), except, S. pyogenes C203, which is cultured in Brain Heart Infusion broth plus 10% normal horse serum. Immediately prior to testing, each culture is adjusted to an optical density of 0.10 (650 nm), employing a Bausch & Lomb Spectronic 20, and diluted subsequently into double strength medium to approximately 2 × 10^5 viable organisms per ml.\n(§6) 1. An automated injector system dispenses 0.05 ml of diluent (sterile H2 O or buffer) to all cups of the autotiter trays from rows 2 through 7.\n(§7) 2. The loops (for sequential dilutions of the compounds are moistened by immersion into 70% ethyl alcohol. After removal of excess alcohol by blotting, the loops are moved to the first row of cups in the autotray containing 0.10 ml of the compound to be diluted and tested (usually, this initial concentration is 500 to 1000 mcg/ml, but can be varied upward or downward). The loops are lowered and sequentially transfer the diluted solutions of the compound through row 7.\n(§8) Immediately after each dilution is made, each cup is automatically inoculated with 0.05 ml of the appropriate test organism. This inoculation derives from a second injector system containing the organism in double-strength medium. The total operation consists of the automatic dilution of a single compound in each of 8 rows of the Autotiter try.\n(§9) After these operations, we reverse the tray and a second compound is diluted over the other one-half of the tray and inoculated, subsequently, with 8 organisms. Thus, for each Autotiter Tray, two compounds are screened against 8 different organisms at dilutions ranging from 1:2 to 1:128.\n(§10) (e) Incubation. The inoculated Autotiter trays are incubated at 37° C for 18 - 20 hr. At the end of this period, each tray is examined for the presence or absence of growth (turbidity). The lowest concentration of the compound inhibiting growth is recorded as the minimal inhibitory concentration (MIC)."}, "S. aureus": {"system": "S. aureus", "experiment": "Minimal inhibitory concentration (MIC), Example V", "assay_type": "cell-based", "details": "Staphylococcus aureus", "description": "as §1, §2, §3, §4, §5, §6, §7, §8, §9, §10"}, "E. coli": {"system": "E. coli", "experiment": "Contact germicidal efficiency (sterilization time)", "assay_type": "cell-based, Escherichia coli", "details": "Example Y, pH 4.6, in presence of horse serum, 468 ppm (80 PPMCl+)", "description": "CONTACT GERMICIDAL EFFICIENCY OF\n(§11) ^a Time intervals screened 0.5, 1, 2, 3, 4 and 5 minutes.\n(§12) ^a Time intervals screened 0.5, 1, 2, 3, 4, 5, 6, 7, 8, 9 and 10\n(§13) ^a Time intervals screened 0.5, 1, 2, 3, 4, and 5 minutes.\n(§14) ^b Time intervals screened 0.5, 1, 2, 3, 4, 5, 6, 7, 8, 9 and 10\n(§15) Immediately preceding the screen, the compound is weighed and diluted with a buffer or other solvent to give the final concentration desired. The buffer or solvent chosen depends on the conditions of the screen and could be one of the following: 0.1 M NaOAc, pH 4.6; 0.1 M NaH2 PO4, pH 7.0; 0.1 M Na2 B4 O7, pH 8.8; 35% methanol in one of the aforementioned buffers; 10% Triton × 100 in buffer, etc.\n(§16) The positive chlorine concentration of the test solution is then determined iodometrically.\nMedia used for the Screen are Nutrient Broth, BBL# 11479 and Nutrient Agar, BBL# 11472 prepared according to label directions. The broth is dispensed in 75 ml amounts of flasks for overnight cultures and in 5 ml amounts to culture tubes for subculturing during the Screen. Agar plates are prepared as usual. […]\nA 0.2 ml portion of the overnight culture is inoculated into 5 ml of 0.9% NaCl for use in controls. […] The earliest subculture time at which no growth is present in the subculture tube is considered the endpoint and is recorded as that time, e.g., 7 minutes. […]"}, "S. epidermidis": {"system": "S. epidermidis", "experiment": "Contact germicidal efficiency (sterilization time)", "assay_type": "cell-based, Staphylococcus epidermidis", "details": "S. epidermidis", "description": "(§17) CONTACT GERMICIDAL EFFICIENCY OF N-CHLORAMINES AS A FUNCTION\nas §11, §12, §13, §14, §15, §16\n(§18) Media used for the Screen are Nutrient Broth, BBL# 11479 and Nutrient Agar, BBL# 11472 prepared according to label directions. The broth is dispensed in 75 ml amounts of flasks for overnight cultures and in 5 ml amounts to culture tubes for subculturing during the Screen. Agar plates are prepared as usual.\n(§19) Overnight cultures are prepared by inoculating from stock cultures into the 75 ml flasks of nutrient broth and incubating for 15 hours at 37° C.\n(§20) The iodometrically characterized test solution is dispensed in 5 ml amounts to seven small stoppered flasks. The organisms are screened one at a time as follows:\n(§21) A 0.2 ml portion of the overnight culture is inoculated into 5 ml of 0.9% NaCl for use in controls. A 0.2 ml portion of the overnight culture is inoculated into a flask containing 5 ml of the test solution, an automatic timer is simultaneously triggered and the solution mixed. At time intervals of 30 seconds, 1, 2, 3, 4, 5, 6, 7, 8, 9, and 10 minutes a loopful of the inoculated solution is subcultured into 5 ml of sterile nutrient broth and mixed by a Vortex Genie Mixer, the high dilution serving to stop the action of the compound. At the end of the ten minute screen, the entire procedure is repeated for each of the remaining six organisms. All of the subculture tubes are incubated at 37° C and checked for signs of growth by turbidity at 24 hr., 48 hr., 3, 5, and 7 days. The earliest subculture time at which no growth is present in the subculture tube is considered the endpoint and is recorded as that time, e.g., 7 minutes.\n(§22) The test solution is prepared and characterized as above but is made up at twice the concentration desired. The solution is diluted 1:1 with Rehydrated Tissue Culture Dessicated Horse Serum, Difco #5357-72 and dispensed in a 5 ml amount to a small flask. The mixture is incubated at Room Temperature for 30 minutes to allow denaturation of the compound by the serum and then screened as above.\n(§23) The 5 ml mixture of serum and test solution are prepared in sequence to allow as close to 30 minutes as possible before the beginning of the screen of each organism.\nas §4"}, "B. bronchiseptica": {"system": "B. bronchiseptica", "experiment": "Contact germicidal efficiency (sterilization time)", "assay_type": "cell-based, Bordetella bronchiseptica", "description": "as §17, §11, §12, §13, §14, §15, §16, §18, §19, §20, §21, §22, §23, §4"}, "[1]": {"details": "Example X, pH 4.6, no horse serum, IV c 404 ppm (69 PPMCl+), IV g 489 ppm (143 PPMCl+)"}, "[2]": {"details": "Example X, pH 7.0, no horse serum, IV c 1886 ppm (323 PPMCl+), IV g 409 ppm (120 PPMCl+)"}, "[3]": {"details": "Example X, pH 9.3, no horse serum, IV c 1704 ppm (292 PPMCl+), IV g 319 ppm (94 PPMCl+)"}, "[4]": {"details": "Example Y, pH 4.6, in presence of horse serum, 468 ppm (80 PPMCl+)"}}, "data": [{"smiles": "CC(C)(COC(=O)C(C)(C)C)NCl", "note": "[IV c, 2-N-Chloroamino-2-methyl-1-propyl 2,2-dimethylproprionate]", "values": [{"measurement": "MIC", "setting": "P. aeruginosa", "value": "> 250", "unit": "µg/mL"}, {"measurement": "MIC", "setting": "S. aureus", "value": "> 250", "unit": "µg/mL"}, {"measurement": "Sterilization Time", "setting": "E. coli", "value": "> 10", "unit": "min"}, {"measurement": "Sterilization Time", "setting": "S. epidermidis; [1]", "value": 0.5, "unit": "min"}, {"measurement": "Sterilization Time", "setting": "S. epidermidis; [2]", "value": 3, "unit": "min"}, {"measurement": "Sterilization Time", "setting": "S. epidermidis; [3]", "value": 4, "unit": "min"}, {"measurement": "Sterilization Time", "setting": "S. epidermidis; [4]", "value": "> 10", "unit": "min"}, {"measurement": "Sterilization Time", "setting": "B. bronchiseptica; [1]", "value": 0.5, "unit": "min"}, {"measurement": "Sterilization Time", "setting": "B. bronchiseptica; [2]", "value": 1, "unit": "min"}, {"measurement": "Sterilization Time", "setting": "B. bronchiseptica; [3]", "value": 1, "unit": "min"}, {"measurement": "Sterilization Time", "setting": "B. bronchiseptica; [4]", "value": "> 10", "unit": "min"}]}]}
